Data from patent US4034102A, “4-Substituted-1,3-dithiolan-2-ylidene malonates and pharmaceutical compositions containing the same” (Nihon Nohyaku Co. Ltd., priority 1975, dated 1977).

Assays:
[1] = test system: CCl4-induced liver damage; assay: Protection against CCl4-induced Hepatotoxicity; assay type: in vivo, mice (four-week-old male, dd strain); conditions: 6 h before CCl4 (0.05 ml/kg oral), 24 h after CCl4, average of 5 to 6 mice; for Liver damage index: 250 mg/kg oral in olive oil, score 0 normal, 2 slightly recognized, 4 clearly observable damage, 6 heavy damage, CCl4 alone 5.2, control 0; for p-GPT (plasma glutamic-pyruvic transaminase activity): 250 mg/kg oral, values over 1,000 regarded as 1,000, CCl4 alone >1000, control 35
Text: Carbon tetrachloride (CCl4) administration induces centrilobular necrosis of the liver associated with loss of diphosphopyridine nucleotide, hepatic glycogen, coenzyme A and increase in neutral fat. Release of several enzymes from the hepatocytes, and increase of enzyme activities in the plasma are recognized as the result of the damage of the liver. A suitable means for evaluating the degree of damage induced by CCl4 or the degree of protection afforded by drugs is to study the plasma glutamic-pyruvic transaminase (p-GPT) activity.
Methods: The test compounds were dissolved or suspended in olive oil and administered orally at the dose of 250 mg/kg to the mice (Four-week-old male mice-dd strain). After 6 hours, CCl4 was administered orally (0.05 ml/kg as olive oil solution). Animals were killed 24 hours after CCl4 administration, and the liver was grossly observed. The plasma was obtained by centrifugation. Activities of p-GPT were determined by the method of Reitman and Frankels and expressed in Karmen units. Score for liver damage index was as follows:
Each figure indicates average of 5 to 6 mice. Values of p-GPT over 1,000 Karmen unit regarded as 1,000 for calculation of average for convenience.

in vivo = conditions: mouse, oral, male mice, read-out: acute oral toxicity LD50
Procedure: For example, the LD50 value of the compound 12 is more than 3,000 mg/kg. Further, these compounds have no detrimental effects on test animals administered therewith, so far as the doses thereof are within an ordinary administration range.

COc1ccc(-c2cc(=S)ss2)cc1 [Anethol trithion, reference compound]
Liver damage index [1]: 1.6 | p-GPT (plasma glutamic-pyruvic transaminase activity) [1]: 58 Karmen units

CCOC(=O)C(C(=O)OCC)=C1SCC(OC(=O)CCl)S1 (stereo not shown) [Compound 1]
Liver damage index [1]: 1.0 | p-GPT (plasma glutamic-pyruvic transaminase activity) [1]: 102 Karmen units

CCOC(=O)C(C(=O)OCC)=C1SCC(OC(=O)CCC(=O)O)S1 (stereo not shown) [Compound 2, Succinic acid semi-ester of diethyl 4-hydroxy-1,3-dithiolan-2-ylidene malonate]
Liver damage index [1]: 0.6 | p-GPT (plasma glutamic-pyruvic transaminase activity) [1]: 43 Karmen units

CCOC(=O)C(C(=O)OCC)=C1SCC(OC(=O)CCCC(=O)O)S1 (stereo not shown) [Compound 3]
Liver damage index [1]: 1.2 | p-GPT (plasma glutamic-pyruvic transaminase activity) [1]: 108 Karmen units

CCOC(=O)C(C(=O)OCC)=C1SCC(OC(=O)CCC(=O)O)S1 (stereo not shown) [Compound 4]
Liver damage index [1]: 0.2 | p-GPT (plasma glutamic-pyruvic transaminase activity) [1]: 45 Karmen units

CCOC(=O)C(C(=O)OCC)=C1SCC(OC(=O)CN(CC)CC)S1 (stereo not shown) [Compound 5, Diethyl 4-diethylaminoacetoxy-1,3-dithiolan-2-ylidene malonate]
Liver damage index [1]: 1.6 | p-GPT (plasma glutamic-pyruvic transaminase activity) [1]: 232 Karmen units

CCCN(CCC)CC(=O)OC1CSC(=C(C(=O)OCC)C(=O)OCC)S1 (stereo not shown) [Compound 6]
Liver damage index [1]: 1.6 | p-GPT (plasma glutamic-pyruvic transaminase activity) [1]: 250 Karmen units

CCOC(=O)C(C(=O)OCC)=C1SCC(OC(=O)C2=C(C(=O)O)CCCC2)S1 (stereo not shown) [Compound 7]
Liver damage index [1]: 2.2 | p-GPT (plasma glutamic-pyruvic transaminase activity) [1]: 382 Karmen units

CCCOC(=O)C(C(=O)OCCC)=C1SCC(OC(=O)CCC(=O)O)S1 (stereo not shown) [Compound 8, Succinic acid semi-ester of di-n-propyl 4-hydroxy-1,3-dithiolan-2-ylidene malonate]
Liver damage index [1]: 0.6 | p-GPT (plasma glutamic-pyruvic transaminase activity) [1]: 77 Karmen units

CC(C)OC(=O)C(C(=O)OC(C)C)=C1SCC(OC(=O)CCl)S1 (stereo not shown) [Compound 9, diisopropyl 4-chloroacetoxy-1,3-dithiolan-2-ylidene malonate]
Liver damage index [1]: 0.6 | p-GPT (plasma glutamic-pyruvic transaminase activity) [1]: 65 Karmen units

CC(C)OC(=O)C(C(=O)OC(C)C)=C1SCC(OC(=O)c2ccccc2)S1 (stereo not shown) [Compound 10]
Liver damage index [1]: 1.7 | p-GPT (plasma glutamic-pyruvic transaminase activity) [1]: 520 Karmen units

CC(C)OC(=O)C(C(=O)OC(C)C)=C1SCC(OC(=O)CCC(=O)O)S1 (stereo not shown) [Compound 11, succinic acid semi-ester of diisopropyl 4-hydroxy-1,3-dithiolan-2-ylidene malonate]
Liver damage index [1]: 0.2 | p-GPT (plasma glutamic-pyruvic transaminase activity) [1]: 54 Karmen units

CC(C)OC(=O)C(C(=O)OC(C)C)=C1SCC(OC(=O)CCC(=O)O)S1 (stereo not shown) [Compound 12]
LD50 (in vivo): > 3000 mg/kg | Liver damage index [1]: 0.2 | p-GPT (plasma glutamic-pyruvic transaminase activity) [1]: 33 Karmen units

CC(C)OC(=O)C(C(=O)OC(C)C)=C1SCC(OC(=O)CCC(=O)O)S1 (stereo not shown) [Compound 13]
Liver damage index [1]: 0.6 | p-GPT (plasma glutamic-pyruvic transaminase activity) [1]: 44 Karmen units

CC(C)OC(=O)C(C(=O)OC(C)C)=C1SCC(OC(=O)CCCC(=O)O)S1 (stereo not shown) [Compound 14]
Liver damage index [1]: 0.6 | p-GPT (plasma glutamic-pyruvic transaminase activity) [1]: 102 Karmen units

CC(C)OC(=O)C(C(=O)OC(C)C)=C1SCC(OC(=O)/C=C\C(=O)O)S1 (stereo not shown) [Compound 15]
Liver damage index [1]: 0.4 | p-GPT (plasma glutamic-pyruvic transaminase activity) [1]: 62 Karmen units

CC(C)OC(=O)C(C(=O)OC(C)C)=C1SCC(OC(=O)c2ccccc2C(=O)O)S1 (stereo not shown) [Compound 16, phthalic acid semi-ester of diisopropyl 4-hydroxy-1,3-dithiolan-2-ylidene malonate]
Liver damage index [1]: 3.2 | p-GPT (plasma glutamic-pyruvic transaminase activity) [1]: 482 Karmen units

CC(C)OC(=O)C(C(=O)OC(C)C)=C1SCC(OC(=O)C2=C(C(=O)O)CCCC2)S1 (stereo not shown) [Compound 17]
Liver damage index [1]: 1.8 | p-GPT (plasma glutamic-pyruvic transaminase activity) [1]: 286 Karmen units

CC(C)OC(=O)C(C(=O)OC(C)C)=C1SCC(OC(=O)C2CC=CCC2C(=O)O)S1 (stereo not shown) [Compound 18]
Liver damage index [1]: 2.6 | p-GPT (plasma glutamic-pyruvic transaminase activity) [1]: 565 Karmen units

CCN(CC)CC(=O)OC1CSC(=C(C(=O)OC(C)C)C(=O)OC(C)C)S1 (stereo not shown) [Compound 19, diisopropyl 4-diethylaminoacetoxy-1,3-dithiolan-2-ylidene malonate]
Liver damage index [1]: 1.2 | p-GPT (plasma glutamic-pyruvic transaminase activity) [1]: 288 Karmen units

CC(C)OC(=O)C(C(=O)OC(C)C)=C1SCC(OC(=O)CN2CCOCC2)S1 (stereo not shown) [Compound 21]
Liver damage index [1]: 1.4 | p-GPT (plasma glutamic-pyruvic transaminase activity) [1]: 380 Karmen units

CCCCOC(=O)C(C(=O)OCCCC)=C1SCC(OC(=O)CN2CCOCC2)S1 (stereo not shown) [Compound 22]
Liver damage index [1]: 0.8 | p-GPT (plasma glutamic-pyruvic transaminase activity) [1]: 134 Karmen units

CCOC(=O)C(C(=O)OCC)=C1SCC(OC(=O)CN2CCOCC2)S1 (stereo not shown) [Compound 23]
Liver damage index [1]: 0.8 | p-GPT (plasma glutamic-pyruvic transaminase activity) [1]: 122 Karmen units

NC(=O)CCCCC1CCSS1 (stereo not shown) [Thioctic acid amide, reference compound]
Liver damage index [1]: 4.8 | p-GPT (plasma glutamic-pyruvic transaminase activity) [1]: 763 Karmen units
